PubChem BioAssay AID2060906 (Molecular Pharmacology Branch, DTP, NCI, 2025)

Tested on: 485176-168-R4-J1-PDC complex spheroid growth
Test: Anticancer human tumor 485176-168-R4-J1-PDC patient-derived pancreatic adenocarcinoma cell line growth inhibition [RAS]
Settings: for IC50: curve of first compound; for viability, T/C: stronger effect = lower value
Method in brief: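 Agents were tested in combination matrices in half-log decrements from a top concentration at or near clinical Cmax (10 microM if undetermined). Targets were multi-cell spheroids of tumour lines plus HUVEC and MSC stromal cells.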

[1] = second compound 0.000949 µM, first compound 0.00316 µM
[2] = second compound 0.000949 µM, first compound 0.01 µM
[3] = second compound 0.000949 µM, first compound 0.0316 µM
[4] = second compound 0.000949 µM, first compound 0.1 µM
[5] = second compound 0.003 µM, first compound 0.00316 µM
[6] = second compound 0.003 µM, first compound 0.01 µM
[7] = second compound 0.003 µM, first compound 0.0316 µM
[8] = second compound 0.003 µM, first compound 0.1 µM
[9] = second compound 0.00949 µM, first compound 0.00316 µM
[10] = second compound 0.00949 µM, first compound 0.01 µM
[11] = second compound 0.00949 µM, first compound 0.0316 µM
[12] = second compound 0.00949 µM, first compound 0.1 µM
[13] = second compound 0.03 µM, first compound 0.00316 µM
[14] = second compound 0.03 µM, first compound 0.01 µM
[15] = second compound 0.03 µM, first compound 0.0316 µM
[16] = second compound 0.03 µM, first compound 0.1 µM
[17] = second compound 0.0949 µM, first compound 0.00316 µM
[18] = second compound 0.0949 µM, first compound 0.01 µM
[19] = second compound 0.0949 µM, first compound 0.0316 µM
[20] = second compound 0.0949 µM, first compound 0.1 µM
[21] = second compound 0.3 µM, first compound 0.00316 µM
[22] = second compound 0.3 µM, first compound 0.01 µM
[23] = second compound 0.3 µM, first compound 0.0316 µM
[24] = second compound 0.3 µM, first compound 0.1 µM
[25] = second compound 0.000949 µM, first compound 0.316 µM
[26] = second compound 0.000949 µM, first compound 1 µM
[27] = second compound 0.003 µM, first compound 0.316 µM
[28] = second compound 0.003 µM, first compound 1 µM
[29] = second compound 0.00949 µM, first compound 0.316 µM
[30] = second compound 0.00949 µM, first compound 1 µM
[31] = second compound 0.03 µM, first compound 0.316 µM
[32] = second compound 0.03 µM, first compound 1 µM
[33] = second compound 0.0949 µM, first compound 0.316 µM
[34] = second compound 0.0949 µM, first compound 1 µM
[35] = second compound 0.3 µM, first compound 0.316 µM
[36] = second compound 0.3 µM, first compound 1 µM
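Further: spheroids exposed to compounds for seven days before readout.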
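Wherever viability, T/C is given: luminescence viability expressed relative to DMSO vehicle wells set as 100%.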

CC(C)n1nc(-c2ccc3oc(N)nc3c2)c2c(N)ncnc21 + CCn1c(-c2cccnc2C(C)OC)c2c3cc(ccc31)N1CCOC(CC(NC(=O)C(C(C)C)N(C)C(=O)C3(F)CCN(C(=O)C#CC(C)(C)N(C)C)CC3)C(=O)N3CCCC(N3)C(=O)OCC(C)(C)C2)C1
IC50 (second compound 0.000949 µM): 0.0222 µM
IC50 (second compound 0.003 µM): 0.0286 µM
IC50 (second compound 0.00949 µM): 0.0213 µM
IC50 (second compound 0.03 µM): 0.0166 µM
IC50 (second compound 0.0949 µM): 0.0174 µM
IC50 (second compound 0.3 µM): 0.00754 µM
viability, T/C (second compound 0.000949 µM, first compound 0.000316 µM): 104%
viability, T/C (second compound 0.000949 µM, first compound 0.001 µM): 81.1%
viability, T/C [1]: 93.7%
viability, T/C [2]: 75.7%
viability, T/C [3]: 38.5%
viability, T/C [4]: 17.7%
viability, T/C (second compound 0.003 µM, first compound 0.000316 µM): 82.1%
viability, T/C (second compound 0.003 µM, first compound 0.001 µM): 79.9%
viability, T/C [5]: 85.5%
viability, T/C [6]: 72.5%
viability, T/C [7]: 48.1%
viability, T/C [8]: 21.4%
viability, T/C (second compound 0.00949 µM, first compound 0.000316 µM): 88.1%
viability, T/C (second compound 0.00949 µM, first compound 0.001 µM): 89.4%
viability, T/C [9]: 84.1%
viability, T/C [10]: 61.8%
viability, T/C [11]: 43.9%
viability, T/C [12]: 16%
viability, T/C (second compound 0.03 µM, first compound 0.000316 µM): 85.5%
viability, T/C (second compound 0.03 µM, first compound 0.001 µM): 84.5%
viability, T/C [13]: 85.7%
viability, T/C [14]: 62.6%
viability, T/C [15]: 33%
viability, T/C [16]: 18.6%
viability, T/C (second compound 0.0949 µM, first compound 0.000316 µM): 90.5%
viability, T/C (second compound 0.0949 µM, first compound 0.001 µM): 86.9%
viability, T/C [17]: 69%
viability, T/C [18]: 65%
viability, T/C [19]: 36.9%
viability, T/C [20]: 19.9%
viability, T/C (second compound 0.3 µM, first compound 0.000316 µM): 76.9%
viability, T/C (second compound 0.3 µM, first compound 0.001 µM): 72.8%
viability, T/C [21]: 59.3%
viability, T/C [22]: 44.1%
viability, T/C [23]: 34.1%
viability, T/C [24]: 14.2%

CCN1CCN(Cc2ccc(Nc3ncc(F)c(-c4cc(F)c5nc(C)n(C(C)C)c5c4)n3)nc2)CC1 + CCn1c(-c2cccnc2C(C)OC)c2c3cc(ccc31)N1CCOC(CC(NC(=O)C(C(C)C)N(C)C(=O)C3(F)CCN(C(=O)C#CC(C)(C)N(C)C)CC3)C(=O)N3CCCC(N3)C(=O)OCC(C)(C)C2)C1
IC50 (second compound 0.000949 µM): > 1 µM
IC50 (second compound 0.003 µM): > 1 µM
IC50 (second compound 0.00949 µM): > 1 µM
IC50 (second compound 0.03 µM): > 1 µM
IC50 (second compound 0.0949 µM): > 1 µM
IC50 (second compound 0.3 µM): > 1 µM
viability, T/C [1]: 93.4%
viability, T/C [2]: 103%
viability, T/C [3]: 100%
viability, T/C [4]: 83.7%
viability, T/C [25]: 96.5%
viability, T/C [26]: 64.5%
viability, T/C [5]: 92%
viability, T/C [6]: 92.4%
viability, T/C [7]: 89.6%
viability, T/C [8]: 99.3%
viability, T/C [27]: 74.2%
viability, T/C [28]: 67.8%
viability, T/C [9]: 101%
viability, T/C [10]: 101%
viability, T/C [11]: 94.3%
viability, T/C [12]: 89.1%
viability, T/C [29]: 74.5%
viability, T/C [30]: 75%
viability, T/C [13]: 86.2%
viability, T/C [14]: 91%
viability, T/C [15]: 87.6%
viability, T/C [16]: 72.8%
viability, T/C [31]: 72%
viability, T/C [32]: 67.4%
viability, T/C [17]: 104%
viability, T/C [18]: 85.2%
viability, T/C [19]: 84.4%
viability, T/C [20]: 75.9%
viability, T/C [33]: 80%
viability, T/C [34]: 74%
viability, T/C [21]: 80.7%
viability, T/C [22]: 84.4%
viability, T/C [23]: 73.2%
viability, T/C [24]: 75.2%
viability, T/C [35]: 75.9%
viability, T/C [36]: 57.4%

C[C@@H](NC(=O)c1ncnc(N)c1Cl)c1ncc(C(=O)Nc2cc(C(F)(F)F)c(Cl)cn2)s1 + CCn1c(-c2cccnc2C(C)OC)c2c3cc(ccc31)N1CCOC(CC(NC(=O)C(C(C)C)N(C)C(=O)C3(F)CCN(C(=O)C#CC(C)(C)N(C)C)CC3)C(=O)N3CCCC(N3)C(=O)OCC(C)(C)C2)C1
IC50 (second compound 0.000949 µM): > 10 µM
IC50 (second compound 0.003 µM): > 10 µM
IC50 (second compound 0.00949 µM): > 10 µM
IC50 (second compound 0.03 µM): > 10 µM
IC50 (second compound 0.0949 µM): > 10 µM
IC50 (second compound 0.3 µM): 9.48 µM
viability, T/C [3]: 101%
viability, T/C [4]: 91.7%
viability, T/C [25]: 100%
viability, T/C [26]: 85.9%
viability, T/C (second compound 0.000949 µM, first compound 3.16 µM): 72.2%
viability, T/C (second compound 0.000949 µM, first compound 10 µM): 54.5%
viability, T/C [7]: 88.6%
viability, T/C [8]: 89.4%
viability, T/C [27]: 86.2%
viability, T/C [28]: 70.6%
viability, T/C (second compound 0.003 µM, first compound 3.16 µM): 71%
viability, T/C (second compound 0.003 µM, first compound 10 µM): 59.6%
viability, T/C [11]: 87.1%
viability, T/C [12]: 98.5%
viability, T/C [29]: 83.7%
viability, T/C [30]: 82.4%
viability, T/C (second compound 0.00949 µM, first compound 3.16 µM): 91%
viability, T/C (second compound 0.00949 µM, first compound 10 µM): 53%
viability, T/C [15]: 81.3%
viability, T/C [16]: 85.6%
viability, T/C [31]: 102%
viability, T/C [32]: 78.3%
viability, T/C (second compound 0.03 µM, first compound 3.16 µM): 75.6%
viability, T/C (second compound 0.03 µM, first compound 10 µM): 79.5%
viability, T/C [19]: 89.9%
viability, T/C [20]: 90.3%
viability, T/C [33]: 78.5%
viability, T/C [34]: 70.7%
viability, T/C (second compound 0.0949 µM, first compound 3.16 µM): 74%
viability, T/C (second compound 0.0949 µM, first compound 10 µM): 58.3%
viability, T/C [23]: 75.2%
viability, T/C [24]: 76.4%
viability, T/C [35]: 65.7%
viability, T/C [36]: 72.4%
viability, T/C (second compound 0.3 µM, first compound 3.16 µM): 59%
viability, T/C (second compound 0.3 µM, first compound 10 µM): 49.7%
